Assay [1] addresses full-length MALT1 protein (Strep-MALT1(1-824)-His) (Homo sapiens (Human), UniProt Q9UDY8). Kind of assay: MALT1 Biochemical Protease Assay (Ac-LRSR-AMC substrate). The following applies: 10 nM FL MALT1, 200 μM Ac-LRSR-AMC, 4 h at RT; read-out: MALT1_Biochemical activity (Ac-LRSR-amc) IC50. In short, it runs like this: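 Full-length MALT1 pre-incubated with compounds (30 μM to 0.5 nM, 11 threefold steps) for 50 min at RT. After Ac-LRSR-AMC was added, the reaction ran 4 h at RT and AMC fluorescence was read. IC50 and Hill slope from curve fitting against no-enzyme and no-compound controls.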

Assay [2] concerns IL6 secretion by TMD8 ABC-DLBCL cells. Kind of assay: Human IL6 Mesoscale assay (TMD-8). In kind it is cell-based. Particulars: Homo sapiens, TMD8; TMD-8 cells, 24 h. In short, it runs like this:
(§1)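 After 24 h at 37 °C with test compounds (15 μM down to 58.6 nM, 9 twofold steps, 0.3% DMSO), IL6 and IL10 secreted by 100,000 OCI-LY3 or TMD8 cells per well were measured in supernatants with a Mesoscale immunoassay. Data were scaled between DMSO wells (high) and RN486 treatment (low).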

Assay [3] concerns IL10 secretion by TMD8 ABC-DLBCL cells. The assay can be described thus: Human IL10 Mesoscale assay (TMD-8). Particulars: Homo sapiens, TMD8; TMD-8 cells, 24 h. Type of assay: cell-based. Summed up: as §1
The next assay concerns OCI-Ly3 cells. Kind of assay: 4-day proliferation assay, OCI-Ly3. Type of assay: cell-based, human. The following applies: Homo sapiens, 96 h, 4 days incubation, CellTiterGLO, read-out: Anti-proliferation: OCI-LY-3 IC50. In short, it runs like this:
(§2)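 TMD8 and OCI-Ly3 cells were seeded at 10,000 per well and grown 4 days at 37° C, 5% CO2 without beta-mercaptoethanol. Viability was read by CellTiter-Glo luminescence. IC50 and Hill slope were fitted relative to the low control median.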

The subject of another assay is TMD8 cells. Kind of assay: 4-day proliferation assay, TMD8. Type of assay: cell-based. The following applies: Homo sapiens, 96 h, 4 days incubation, CellTiterGLO, read-out: Anti-proliferation: TMD-8 IC50. Summed up:
as §2
In general terms: ATP-based viability assays read luminescence as a measure of living cells.

full-length MALT1 protein (Strep-MALT1(1-824)-His), sequence (Q9UDY8 whole entry): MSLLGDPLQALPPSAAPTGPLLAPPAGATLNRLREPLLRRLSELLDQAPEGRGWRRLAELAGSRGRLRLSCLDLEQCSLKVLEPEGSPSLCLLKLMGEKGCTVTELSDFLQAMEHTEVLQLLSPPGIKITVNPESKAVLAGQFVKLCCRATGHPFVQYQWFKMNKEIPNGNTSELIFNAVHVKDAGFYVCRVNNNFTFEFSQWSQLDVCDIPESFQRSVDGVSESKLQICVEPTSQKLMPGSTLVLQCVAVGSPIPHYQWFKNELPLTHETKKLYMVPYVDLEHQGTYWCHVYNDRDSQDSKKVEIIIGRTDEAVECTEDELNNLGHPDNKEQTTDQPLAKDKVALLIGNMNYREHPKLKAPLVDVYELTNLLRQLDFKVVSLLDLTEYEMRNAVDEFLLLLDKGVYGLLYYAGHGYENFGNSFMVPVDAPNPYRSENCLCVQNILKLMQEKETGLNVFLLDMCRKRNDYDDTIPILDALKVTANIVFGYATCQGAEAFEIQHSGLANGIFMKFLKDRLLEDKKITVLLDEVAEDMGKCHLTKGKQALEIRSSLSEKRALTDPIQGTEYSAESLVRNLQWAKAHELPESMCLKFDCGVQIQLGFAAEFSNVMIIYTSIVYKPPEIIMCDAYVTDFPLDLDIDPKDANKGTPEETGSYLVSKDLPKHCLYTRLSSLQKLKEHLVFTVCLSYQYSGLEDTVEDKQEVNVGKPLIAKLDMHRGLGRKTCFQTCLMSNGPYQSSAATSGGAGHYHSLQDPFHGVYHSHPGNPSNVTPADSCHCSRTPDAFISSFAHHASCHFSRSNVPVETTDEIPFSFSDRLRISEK

Take `N#Cc1cc(NC(=O)c2cnn(-c3ccnc4ccoc34)c2C(F)(F)F)cnc1-n1nccn1` [Cpd 150, N-(5-cyano-6-(2H-1,2,3-triazol-2-yl)pyridin-3-yl)-1-(furo[3,2-b]pyridin-7-yl)-5-(trifluoromethyl)-1H-pyrazole-4-carboxamide]: the IC50 in assay [1] is 8 nM; in assay [2], 457 nM; in assay [3], 178 nM; with OCI-Ly3 cells it was 282 nM; with TMD8 cells it was over 7940 nM.
On to `N#Cc1cc(NC(=O)c2cnn(-c3cnc(N)c4ccccc34)c2C(F)(F)F)cnc1-n1nccn1` [Cpd 156, 1-(1-aminoisoquinolin-4-yl)-N-(5-cyano-6-(2H-1,2,3-triazol-2-yl)pyridin-3-yl)-5-(trifluoromethyl)-1H-pyrazole-4-carboxamide], for which the IC50 in assay [1] amounted to 22 nM; in assay [2], 2510 nM; in assay [3] it was 2340 nM; with OCI-Ly3 cells, 776 nM; in the assay on TMD8 cells, 5250 nM.
Take `COCc1cnn(-c2ncc(NC(=O)c3cnn(-c4cccc5ncccc45)c3C(F)(F)F)cc2Cl)n1` [Cpd 173, N-(5-chloro-6-(4-(methoxymethyl)-2H-1,2,3-triazol-2-yl)pyridin-3-yl)-1-(quinolin-5-yl)-5-(trifluoromethyl)-1H-pyrazole-4-carboxamide]: the IC50 in assay [1] came out at 59 nM; in assay [2] it was 550 nM; in assay [3], 240 nM; in the assay on OCI-Ly3 cells it was 1730 nM; with TMD8 cells, 2690 nM.
As for `O=C(Nc1ccc(-n2cc(CO)cn2)c(Cl)c1)c1cnn(-c2cccc3ncccc23)c1C(F)(F)F` [Cpd 175, N-(3-chloro-4-(4-(hydroxymethyl)-1H-pyrazol-1-yl)phenyl)-1-(quinolin-5-yl)-5-(trifluoromethyl)-1H-pyrazole-4-carboxamide], the IC50 was 47 nM in assay [1]; over 3020 nM in assay [2]; 204 nM in assay [3]; 1080 nM with OCI-Ly3 cells; 1230 nM in the assay on TMD8 cells.
For `N#Cc1cc(NC(=O)c2cnn(-c3cccc4ncccc34)c2C(F)(F)F)cnc1-n1ncc(CO)n1` [Cpd 177, N-(5-cyano-6-(4-(hydroxymethyl)-2H-1,2,3-triazol-2-yl)pyridin-3-yl)-1-(quinolin-5-yl)-5-(trifluoromethyl)-1H-pyrazole-4-carboxamide], in that order: 44 nM, 933 nM, 363 nM, 1710 nM and 6610 nM.
`O=C(Nc1cnc(-n2cc(CO)cn2)c(Cl)c1)c1cnn(-c2cccc3c(=O)[nH]ccc23)c1C(F)(F)F` [Cpd 182, N-(5-chloro-6-(4-(hydroxymethyl)-1H-pyrazol-1-yl)pyridin-3-yl)-1-(1-oxo-1,2-dihydroisoquinolin-5-yl)-5-(trifluoromethyl)-1H-pyrazole-4-carboxamide]: the IC50 in assay [1] worked out at 35 nM; in assay [2], 7590 nM; in assay [3], 2510 nM; in the assay with OCI-Ly3 cells it was 3140 nM; with TMD8 cells, 5250 nM.
For the molecule `Cn1nc(-c2ncc(NC(=O)c3cnn(-c4cccc5c(=O)[nH]ccc45)c3C(F)(F)F)cc2Cl)cc1N` [Cpd 183, N-(6-(5-amino-1-methyl-1H-pyrazol-3-yl)-5-chloropyridin-3-yl)-1-(1-oxo-1,2-dihydroisoquinolin-5-yl)-5-(trifluoromethyl)-1H-pyrazole-4-carboxamide], the IC50 was 35 nM in assay [1]; 6610 nM in assay [2]; 2140 nM in assay [3]; 3570 nM with OCI-Ly3 cells; over 20000 nM with TMD8 cells.
As to `O=C(Nc1cnc(-n2nccn2)c(Cl)c1)c1cnn(-c2c[nH]c(=O)c3c(F)cccc23)c1C(F)(F)F` [Cpd 184, N-(5-chloro-6-(2H-1,2,3-triazol-2-yl)pyridin-3-yl)-1-(8-fluoro-1-oxo-1,2-dihydroisoquinolin-4-yl)-5-(trifluoromethyl)-1H-pyrazole-4-carboxamide], the IC50 was determined as 32 nM in assay [1]; 4270 nM in assay [2]; 1000 nM in assay [3]; 585 nM with OCI-Ly3 cells; 6030 nM with TMD8 cells.
Regarding `O=C(Nc1cnc(-n2nccn2)c(Cl)c1)c1cnn(-c2ccc(F)c3nccn23)c1C(F)(F)F` [Cpd 202, N-(5-chloro-6-(2H-1,2,3-triazol-2-yl)pyridin-3-yl)-1-(8-fluoroimidazo[1,2-a]pyridin-5-yl)-5-(trifluoromethyl)-1H-pyrazole-4-carboxamide], the IC50 in assay [1] amounted to 51 nM; in assay [2], 5010 nM; in assay [3], 2950 nM; in the assay with OCI-Ly3 cells, 1360 nM; in the assay on TMD8 cells, 2340 nM.
Take `N#Cc1cc(NC(=O)c2cnn(-c3ccc(F)c4nccn34)c2C(F)(F)F)cnc1-n1nccn1` [Cpd 204, N-(5-cyano-6-(2H-1,2,3-triazol-2-yl)pyridin-3-yl)-1-(8-fluoroimidazo[1,2-a]pyridin-5-yl)-5-(trifluoromethyl)-1H-pyrazole-4-carboxamide]: the IC50 in assay [1] was 35 nM; in assay [2], 525 nM; in assay [3], 1150 nM; in the assay on OCI-Ly3 cells, 1720 nM; with TMD8 cells it was 5890 nM.
With `O=C(Nc1cnc(-n2nccn2)c(Cl)c1)c1cnn(-c2cccc3nc(Cl)ccc23)c1C(F)(F)F` [Cpd 221, N-(5-chloro-6-(2H-1,2,3-triazol-2-yl)pyridin-3-yl)-1-(2-chloroquinolin-5-yl)-5-(trifluoromethyl)-1H-pyrazole-4-carboxamide], the IC50 in assay [1] turned out to be 2040 nM; in assay [2] it was 331 nM; in assay [3], 331 nM; with OCI-Ly3 cells, 912 nM; in the assay with TMD8 cells, 2570 nM.
As to `N#Cc1cc(NC(=O)c2cnn(-c3ccc(F)c4ccccc34)c2C(F)(F)F)cnc1-n1nccn1` [Cpd 312, N-(5-cyano-6-(2H-1,2,3-triazol-2-yl)pyridin-3-yl)-1-(4-fluoronaphthal-1-yl)-5-(trifluoromethyl)-1H-pyrazole-4-carboxamide], the IC50 in assay [1] was determined as 49 nM; in assay [2], 8320 nM; in assay [3], 2460 nM; in the assay on OCI-Ly3 cells it was 516 nM; in the assay on TMD8 cells, 501 nM.
For `COC(=O)c1ccc(NC(=O)c2cnn(-c3cccc4ncccc34)c2C(F)(F)F)cc1C#N` [Cpd 313, methyl 2-cyano-4-(1-(quinolin-5-yl)-5-(trifluoromethyl)-1H-pyrazole-4-carboxamido)benzoate], the IC50 in assay [1] was found to be 43 nM; in assay [2], 7240 nM; in assay [3], 4170 nM; in the assay with OCI-Ly3 cells, 939 nM; in the assay with TMD8 cells it was 7940 nM.
For `O=C(Nc1cnc(-n2nccn2)c(Cl)c1)c1cnn(-c2cnc(CO)c3ccccc23)c1C(F)(F)F` [Cpd 385, N-(5-chloro-6-(2H-1,2,3-triazol-2-yl)pyridin-3-yl)-1-(1-(hydroxymethyl)isoquinolin-4-yl)-5-(trifluoromethyl)-1H-pyrazole-4-carboxamide], in that order: 54 nM, 214 nM, 166 nM, 837 nM and 1510 nM.
Consider `NC(=O)c1ncc(-n2ncc(C(=O)Nc3cnc(-n4nccn4)c(Cl)c3)c2C(F)(F)F)c2ccsc12` [Cpd 391, 4-(4-((5-chloro-6-(2H-1,2,3-triazol-2-yl)pyridin-3-yl)carbamoyl)-5-(trifluoromethyl)-1H-pyrazol-1-yl)thieno[2,3-c]pyridine-7-carboxamide], for which the IC50 in assay [1] is 7 nM; in assay [2], 45 nM; in assay [3], 31 nM; with OCI-Ly3 cells it was 505 nM; in the assay on TMD8 cells, 676 nM.
In the case of `O=C(Nc1cnc(-n2nccn2)c(Cl)c1)c1cnn(-c2cc[n+]([O-])c3ccccc23)c1C(F)(F)F` [Cpd 405, 4-(4-((5-chloro-6-(2H-1,2,3-triazol-2-yl)pyridin-3-yl)carbamoyl)-5-(trifluoromethyl)-1H-pyrazol-1-yl)quinoline 1-oxide], the IC50 in assay [1] was found to be 44 nM; in assay [2], 457 nM; in assay [3] it was 178 nM; in the assay with OCI-Ly3 cells, 513 nM; in the assay on TMD8 cells it was 4360 nM.
`N#Cc1nccc2c(-n3ncc(C(=O)Nc4cnc(-n5nccn5)c(Cl)c4)c3C(F)(F)F)cccc12` [Cpd 411, N-(5-chloro-6-(2H-1,2,3-triazol-2-yl)pyridin-3-yl)-1-(1-cyanoisoquinolin-5-yl)-5-(trifluoromethyl)-1H-pyrazole-4-carboxamide]: the IC50 in assay [1] was 33 nM; in assay [2], 2510 nM; in assay [3], 2340 nM; in the assay on OCI-Ly3 cells, 486 nM; with TMD8 cells, 871 nM.
Regarding `N#Cc1cc(NC(=O)c2cnn(-c3nccn4nccc34)c2C(F)(F)F)cnc1-n1nccn1` [Cpd 425, N-(5-cyano-6-(2H-1,2,3-triazol-2-yl)pyridin-3-yl)-1-(pyrazolo[1,5-a]pyrazin-4-yl)-5-(trifluoromethyl)-1H-pyrazole-4-carboxamide], the IC50 in assay [1] stood at 389 nM; in assay [2], 339 nM; in assay [3] it was 112 nM; with OCI-Ly3 cells it was 905 nM; in the assay on TMD8 cells, 11000 nM.

These data come from patent publication US10954214B2 (Janssen Pharmaceutica NV, priority 2016, dated 2021).
